Where “and” joins values, the source holds several entries; their conditions need not be identical. Equal values may be shown once.

Assay [1] concerns c-KIT auto-phosphorylation in c-KIT D816V Ba/F3 cells. The assay is described as follows: Western blot of c-KIT signaling. The format is cell-based. The following applies: 10 μM. The protocol: Cells were harvested and lysed using RIPA buffer containing 50 mM HEPES (pH 7.4), 1% Triton X-100, 2 mM EDTA, 150 mM NaCl, 2.5 mM NaF, 5 mM Na3VO4, and protease inhibitor cocktail tablet (Roche, # 11–878-580–001). Proteins were separated and transferred to an NC membrane. The membranes were blocked using 5% skim milk in TBS-T buffer. The p-c-KIT (Tyr703, # 3073), p-AKT (Ser473, # 9271), p-ERK (Thr202/Tyr204, # 8544), ERK (# 4695), p-PLCγ (Tyr783, # 14008), p-STAT3 (Tyr705, # 4074), and PARP (# 9542) antibodies were obtained from Cell Signaling Technologies. The β-actin (# sc-47778) and STAT3 (# sc-482) antibodies were obtained from Santa Cruz Biotechnology. AKT (A18120) antibody was purchased from ABclonal. Each primary antibody was incubated overnight at 4 °C. The secondary antibody (GenDEPOT) was incubated for 1 h at room temperature. Proteins were detected using ECL substrate.
On the technique in general: Immunoblotting shows a protein as a band on a membrane.

Assay [2] has as its target T1, c-KIT (Homo sapiens, UniProt P10721). In words: Radiometric biochemical kinase assay on c-KIT. The arrangement: purchased Reaction Biology Corp. (contract assay service). The protocol: (§1) Biochemical kinase assays on c-KIT protein kinase were performed at Reaction Biology Corp. (San Diego, CA, USA). […] The kinase assay followed the manufacturer’s instruction. IC50 values were calculated by GraphPad prism 8.0 software (GraphPad Software, San Diego, CA, USA).
Enzymatic inhibitory activities of all synthesized thiazolo[5,4-b]pyridine derivatives against c-KIT were measured using radiometric biochemical kinase assays (Table 1). We first explored the R1 group of the thiazolo[5,4-b]pyridine scaffold.

In assay [3] the test system is HMC1.2 cells. The assay is described as follows: Cell cycle arrest analysis (PI flow cytometry). The format is cell-based, human. The following applies: HMC1.2, 0.5 μM, 24 h. The protocol: (§2) After compound treatment in GIST-T1 and HMC1.2 cells for 24 h, cells were fixed with 70% cold ethanol. Then, cells were incubated with 50 μg propidium iodide/mL solution (PI, Sigma) containing 1 mg RNase A/mL for 30 min in the dark. Cell cycle arrest was analyzed (BD Accuri), and data were processed using BD Accuri^TM C6 software. For apoptosis analysis, compound treatment for 24–48 h, cells were harvested and stained with annexinV and PI solution. 1 × 10^5 cells were analyzed using flow cytometric analysis.

Assay [4] concerns GIST-T1 cells. The assay is described as follows: Cell cycle arrest analysis (PI flow cytometry). The class given is cell-based, human. The following applies: GIST-T1, 0.01 μM. The protocol:
as §2
(In flow cytometry, cells or beads pass a laser one at a time.)

Assay [5] deals with T1, c-KIT. The assay is described as follows: Kinase panel profiling. The class given is biochemical. Set-up: purchased Reaction Biology Corp. The following applies: 10 μM ATP. The protocol: (§3) Kinase panel profiling was conducted by Reaction Biology Corp. (San Diego, CA, USA). A single dose (1.0 μM) of 6r was tested against 371 recombinant human kinases in the presence of 10 μM ATP.

For assay [6], the system named is HMC1.2 cells. In words: Apoptosis analysis (annexinV/PI flow cytometry). The format is cell-based, human. The following applies: HMC1.2, 1 μM, 48 h. The protocol:
as §2

The subject of assay [7] is GIST-T1 cells. In words: Apoptosis analysis (annexinV/PI flow cytometry). The class given is cell-based, human. The following applies: GIST-T1, 0.05 μM. The protocol:
as §2

For assay [8], the system named is c-KIT D816V Ba/F3 cells. In words: Anti-proliferative activity on Ba/F3 cells. The format is cell-based. The following applies: Mus musculus, BaF3.
Assay [9] relates to GIST-T1 cells. The assay is described as follows: Soft agar assay (anchorage-independent growth). The format is cell-based, human. The following applies: 3 weeks. The protocol: Anchorage-independent growth was assessed by determining colony formation on soft agar. GIST-T1 cells in DMEM media containing 0.7% agar were plated at 5,000 cells per well. Cells were treated with each compound for 3 weeks, and the media were changed every 3 days. Colonies were stained using iodonitrotetrazolium chloride (Sigma Aldrich). The average number colonies were counted using ImageJ software (version 1.53e, National Institutes of Health, Bethesda, MD, USA)

For a further assay, the target named is T2, c-KIT V560G/D816V (Homo sapiens, UniProt P10721, D816V/V560G).
T2 construct: purchased Promega VA7063
The assay is described as follows: ADP-Glo kinase assay on c-KIT V560G/D816V. The class given is biochemical. The procedure:
as §1
A general note: In ADP-Glo the light output rises with the ADP produced.

In assay [10] the test system is c-KIT D816V Ba/F3 cells. The assay is described as follows: Apoptosis analysis (annexinV/PI flow cytometry). The following applies: c-KIT D816V Ba/F3, 1 μM. The class given is cell-based. The procedure:
as §2

Assay [11] relates to GIST-T1 cells. In words: Migration (wound healing) assay. The format is cell-based, human. The following applies: GIST-T1, 0.005 μM and 0.05 μM, 36 h. The procedure: GIST-T1 cells were seeded in 6-well plates at 2 × 10^6 cells. Next day, cells were washed with PBS and wounded in the center of each well. Then, GIST-T1 cells were washed with PBS and added to fresh DMEM.
The target in another assay is T3, DLK/MAP3K12 (Homo sapiens, UniProt Q12852).
T3 construct: purchased Reaction Biology Corp
The assay is described as follows: Kinase panel profiling. The format is biochemical. The following applies: 10 μM ATP. The procedure:
as §3

The target in a further assay is T4, CDK2/cyclin E2 (Homo sapiens, UniProt P24941).
T4 construct: purchased Reaction Biology Corp
In words: Kinase panel profiling. The format is biochemical. The following applies: 10 μM ATP. The procedure:
as §3

A further assay has as its target T5, EPHA2 (Homo sapiens, UniProt P29317).
T5 construct: purchased Reaction Biology Corp
In words: Kinase panel profiling. The class given is biochemical. The following applies: 10 μM ATP. The procedure: as §3

For a further assay, the target named is T6, CDK19/cyclin C (Homo sapiens, UniProt Q9BWU1).
T6 construct: purchased Reaction Biology Corp
The assay is described as follows: Kinase panel profiling. The following applies: 10 μM ATP. The class given is biochemical. The procedure:
as §3

The next assay has as its target T7, PKCeta (Homo sapiens, UniProt P24723).
T7 construct: purchased Reaction Biology Corp
The assay is described as follows: Kinase panel profiling. The format is biochemical. The following applies: 10 μM ATP. The protocol: as §3

The target in the next assay is T8, IR (Homo sapiens, UniProt P06213).
T8 construct: purchased Reaction Biology Corp
In words: Kinase panel profiling. The format is biochemical. The following applies: 10 μM ATP. The procedure:
as §3

The target in the next assay is T9, PIM1 (Homo sapiens, UniProt P11309).
T9 construct: purchased Reaction Biology Corp
In words: Kinase panel profiling. The class given is biochemical. The following applies: 10 μM ATP. The procedure:
as §3

Assay [12] relates to GIST-T1 cells. In words: Invasion assay (Transwell). The format is cell-based, human. The following applies: GIST-T1, 0.05 μM, 48 h. The procedure:
The cell invasion assay was performed using Transwell membrane filter inserts (Corning Costar Corp., Corning, NY, USA). GIST-T1 cells were then suspended in serum-free DMEM at 2 × 10^6 cells and seeded in the upper chambers. In the lower chambers, the DMEM medium containing 10% FBS was added. After 48 h, the cells migrating down the membrane were stained with crystal violet.

On to `Cc1ccc(NC(=O)c2ccc(CN3CCN(C)CC3)c(C(F)(F)F)c2)cc1-c1cnc2sc(N)nc2c1` [6r], for which, in assay [1], the c-KIT auto-phosphorylation entry was “completely inhibited”. The IC50 is 140 nM on c-KIT [2] (read-out: IC50 against c-KIT) and 4.77 ± 0.38 µM at c-KIT V560G/D816V (ADP-Glo kinase assay, 10 μM ATP). On c-KIT [2] (versus 6m), the “fold enhanced c-KIT inhibitory activity compared to 6m” value is on record as 15.5 fold. The “fold higher c-KIT inhibitory activity than imatinib” value at c-KIT [2] (versus imatinib) amounted to 1.9 fold. Moreover, the “G0/G1 arrest compared with imatinib” value with HMC1.2 cells [3] is given as “more strongly”. The “G0/G1 arrest induced compared to control” value with GIST-T1 cells [4] is on record as 25–35%. Also, the inhibition at 1 µM stood at 98.7% against c-KIT [5]; 0% against DLK/MAP3K12; 8.3% against CDK2/cyclin E2; 77.4% on EPHA2; 12.8% against CDK19/cyclin C; 3.1% at PKCeta. Further, the inhibition at 1 µM amounted to 1.9% at IR and 13.6% against PIM1. In addition, the “production of apoptotic cells” value in the assay on HMC1.2 cells [6], with GIST-T1 cells [7] and with c-KIT D816V Ba/F3 cells [10] was “remarkably induced” each time. The compound further came in with a GI50 with c-KIT D816V Ba/F3 cells [8] of 1110 ± 470 nM. For the same compound, the anchorage-independent growth entry was “completely suppressed” in the assay on GIST-T1 cells [9] (GIST-T1, 0.05 μM, compared to control) and “dramatic inhibition” with GIST-T1 cells [9] (GIST-T1, two different concentrations). For the same compound, the “fold higher enzymatic inhibitory activity against c-KIT V560G/D816V compared with imatinib” value at c-KIT V560G/D816V (versus imatinib) is 4.9- to 8.0 fold and 8.0 fold. Besides, the “cell migration decreased compared to control” value in the assay on GIST-T1 cells [11] is 50–70%. Further, in the assay with GIST-T1 cells [12], the invasion capability result is “significantly suppressing”.

As a reminder, the IC50 is the concentration that inhibits the measured activity by half. The inhibition is the relative decrease from the control value, in per cent. Lower therefore signals little suppression. By GI50 is commonly meant the concentration that inhibits growth by half. The low end stands for greater sensitivity of the cells, the high end for lower sensitivity of the cells.

The values are drawn from paper PMC9817970 (Cancers, 2022).
